Results on two compounds are retold here after patent US20090099218A1, “SYNTHESIS OF NOVEL TUBULIN POLYMERIZATION INHIBITORS: BENZOYLPHENYLUREA (BPU) SULFUR ANALOGS” (priority 2007, published 2009).

Data set [1] in a line: In vivo dose-finding study. The note with it: for toxicity: 20 mg/kg and 30 mg/kg twice per week i.p., 4 weeks, six mice; for remaining animals that lost >15% of their weight: 50 mg/kg thrice per week i.p.; for mice that died in the 3rd week: mouse, in vivo. The protocol: Both compounds were explored by the i.p. route in cohorts of six mice each, with a duration of treatment of 4 weeks. […] Therefore, 50 mg/kg twice per week was explored. […] Therefore, the dose was escalated to 50 mg/kg thrice per week. In the 6n and 7d groups, respectively, two and one of the mice died in the 3rd week, and three of four and four of five of the remaining animals lost >15% of their weight. Thus, for 28-day efficacy studies following an i.p. route, we selected 50 mg/kg twice a week for both compounds.

The subject of a further data set is Panc430. Nature of the data set: MTT growth inhibition, pancreatic cell line Panc430. It is filed as cell-based. Conditions: for pIC50: MTT assay, 96 h treatment, average of three independent experiments. The protocol:
(§1) Eight of these analogs 6d, 6h, 6n, 6g, 7b, 7d, 8g, and 8h were tested for their cytotoxicity in seven pancreatic cell lines ASPC1, Panc1, Panc203, Panc430, Pane 1005, MiaPaca2, and HS766T using MTT assay. Cells were trypsinized, seeded at 5×10^3 cells/well in 96-well plate and allowed to grow for 24 hours before the treatment with exponential increasing concentrations of drugs in the presence of 10% FBS. After a 96-hours period of treatment, 20 μl of MTT solution (5 mg/ml in PBS) were added to each well, and the plates were then incubated for 3 hours at 37° C. Medium was then replaced with 100 μl of DMSO per well. Plates were shaken and the optical density was measured at 570 nm using a multiwell plate reader (Bio-Rad, Model 550, Bio-Rad Inc., Hercules, Calif.). Each experiment was performed in triplicate for each drug concentration and was carried out independently at least 3 times. The IC50 value was defined as the concentration needed for a 50% reduction in the absorbance calculated based on the survival curves. Response to drug treatment was assessed by standardizing treatment groups to untreated controls. Compounds activity was compared with compound 1.
(§2) Table 2 (Growth Inhibition of Pancreatic Cancer Cell Lines by BPU and BPTU Analogues (IC50) a) compares the cytotoxicity of a series of new derivatives against a panel of seven pancreatic cancer cell lines, as determined by MTT assay. See, Mosmann, T., J. Immunol. Methods 65:55-63 (1983).

Another data set relates to ASPC1. Nature of the data set: MTT growth inhibition, pancreatic cell line ASPC1. Conditions: Homo sapiens, ASPC1; MTT assay, 96 h treatment; average of three independent experiments. It is filed as cell-based. How it is done: as §1, §2
Background: Tetrazolium dyes change colour on reduction, which living cells bring about.

For another data set, the system named is Panc1. Nature of the data set: MTT growth inhibition, pancreatic cell line Panc1. It is filed as cell-based. Conditions: for pIC50: Homo sapiens, PANC-1, MTT assay, 96 h treatment, average of three independent experiments. The protocol: as §1, §2
A further data set deals with LnCaP. In words: MTT growth inhibition, prostate cancer cell line LnCaP. It is filed as cell-based, human. The note with it: for pIC50: Homo sapiens, LNCaP, MTT assay, average of three independent experiments. How it is done: (§3) This MTT assay was carried using human prostate cancer cell lines CWR22R, LAPC-4 and LnCap using Promega cell titer 96 nonradioactive cell proliferation kits. Cells were trypsinized and centrifuged at 1000 rpm for 5 minutes and the supernatant was aspirated. Cells were resuspended with HBSS to a concentration of 10^6/ml. Cell suspension was diluted in serum containing medium to plate 2000 cells/well/0.2 ml. Cell suspension was transferred to sterile solution basin. Cells were plated using multichannel pipette set at 200 μl and incubated overnight for attachment. One plate was prepared for day 0 MTT assay as follows: 100 μl of media was removed from each well using multichannel pipette and 15 μl of MTT reagent was added. Plates were incubated at 37° C. for 4 hrs. […] of STOP solution was added to each well and incubated at room temperature for 1 hour. Absorbance was measured at 570 and 650 nm on plate reader. All the media from the remaining plates were carefully removed and the cells were treated with the media containing drug. MTT assays were done on days 0, 3, 5 and 7. In the preliminary screening […] BPU sulfur analogs 6l, 6h, 6n, 7d and 8h were screened and their activity was compared with compound 1.
(§4) Compounds with significant inhibitory activity in pancreatic cancer cells were further evaluated against prostate cancer cell lines in the MTT assay, (Mosmann, T., J. Immunol. Methods 65:55-63 (1983)) and the results were compared to those for compound 1 (Table 3).

Data set [2] deals with prostate cancer cell lines CWR22R, LAPC-4 and LnCap. Nature of the data set: MTT growth inhibition, prostate cancer cell line panel. The data set is classed as cell-based, human. The note with it: for potency relative to compound 1, prostate cell lines (preliminary screening): CWR22R, LAPC-4, LnCap. How it is done: as §3
The subject of another data set is LAPC-4. In words: MTT growth inhibition, prostate cancer cell line LAPC-4. It is filed as cell-based, human. The note with it: for pIC50: Homo sapiens, LAPC4, MTT assay, average of three independent experiments. The protocol: as §3, §4
In another data set the test system is Panc1005. Nature of the data set: MTT growth inhibition, pancreatic cell line Panc1005. The data set is classed as cell-based. Conditions: Homo sapiens, Panc1005; MTT assay, 96 h treatment; average of three independent experiments. How it is done: as §1, §2
A further data set relates to HS766. In words: MTT growth inhibition, pancreatic cell line HS766. It is filed as cell-based. Conditions: Homo sapiens, Hs 766; MTT assay, 96 h treatment; average of three independent experiments. How it is done:
as §1, §2

A further data set deals with Miapaca2. Nature of the data set: MTT growth inhibition, pancreatic cell line Miapaca2. It is filed as cell-based. The note with it: for pIC50: Homo sapiens, MIA PaCa-2, MTT assay, 96 h treatment, average of three independent experiments. How it is done:
as §1, §2

pIC50: −log10 of the molar value. A value given as a limit tells only on which side of the number the result lay.

A word on the pIC50: it is the IC50 on a negative log10 scale, so that one unit is a factor of ten. Consider `O=C(NC(=O)c1ccccc1[N+](=O)[O-])Nc1ccc(Sc2ncc(Br)cn2)cc1` [Compound 6n, 1-[4-(5-Bromopyrimidin-2-ylsulfanyl)phenyl]-3-(2-nitrobenzoyl)-urea], for which the toxicity result in data set [1] is “not associated with noticeable toxicity”. In addition, the “remaining animals that lost >15% of their weight” value in [1] was “three of four”. Moreover, the “mice with a weight loss of 15% by the 4th week” value in data set [1] (50 mg/kg twice per week i.p.) is “One of six”. In addition, the “mice that died in the 3rd week” value in [1] is “two”. Also, the pIC50 with Panc430 was 7.05; with ASPC1, 6.00; in the data set on Panc1 it was 7.07; with LnCaP, 7.30; in data set [2] (Homo sapiens, all prostate cell lines, read-out: IC50 against all prostate cell lines), 7.30; with LAPC-4 it was 7.30. The results for the pIC50 in the data set on Panc1005, in the data set on HS766 and in the data set on Miapaca2 were 5.00, 7.06 and 7.07, respectively. Also, the “increase in potency over 6m” value amounted to 111 fold in the data set on Panc430 (Panc430), 8 fold with Panc1 (Panc1), 20 fold with LnCaP (LnCap) and 8 fold in the data set on Miapaca2 (Mia-paca2). In addition, in data set [2], the “potency relative to compound 1, prostate cell lines (preliminary screening)” value was 20 times.

Turning to `Nc1ccccc1C(=O)NC(=O)Nc1ccc(Sc2ncc(Br)cn2)cc1` [Compound 7d], the toxicity result in data set [1] was “not associated with noticeable toxicity”. Moreover, in data set [1], the “remaining animals that lost >15% of their weight” value is on record as “four of five”. In addition, in data set [1], the “mice that died in the 3rd week” value is listed as “one”. Further, the pIC50 is 6.70 in the data set on Panc430; 6.35 with ASPC1; 7.05 with Panc1; 6.30 in the data set on LnCaP; 7.00 with LAPC-4; 5.00 in the data set on Panc1005. The figures for the pIC50 in the data set with HS766 and with Miapaca2 were 6.15 and 7.02, respectively. Also, the “increase in activity compared to 7c” value was greater than 50 fold in the data set with Panc430 (Panc430), 39 fold with Panc1 (Panc1), 7 fold in the data set with LAPC-4 (LAPC-4) and 9 fold in the data set with Miapaca2 (Miapaca2). In addition, the “potency relative to compound 1, prostate cell lines (preliminary screening)” value in data set [2] was found to be 20 times.
